Reference: ChEMBL document CHEMBL4422618, “Translational impact of novel widely pharmacological characterized mofezolac-derived COX-1 inhibitors combined with bortezomib on human multiple myeloma cell lines viability” (Eur J Med Chem, 2019)
The source made the active and inactive calls. No cut-off for these calls is given here.

Legend:
[1] = test system: RPMI-8226; assay: Cell cycle arrest in human RPMI8226 cells assessed as reduction in accumulation at G2/M phase at 42 nM in presence of bortezomib after 48 hrs by propidium iodide/RNase staining based flow cytometric method relative to bortezomib; assay type: functional
[2] = test system: NCI-H929; assay: Induction of apoptosis in human NCI-H929 cells assessed as early apoptotic cells at 42 nM after 48 hrs in presence of bortezomib by Annexin-V/propidium iodide staining based flow cytometric method (reference value: 17.1%); assay type: functional
[3] = test system: NCI-H929; assay: Cytotoxicity against human NCI-H929 cells assessed as reduction in cell viability at 42 nM after 48 hrs by CCK8 assay; assay type: functional, cell-based
[4] = molecular target: T1, Prostaglandin G/H synthase 1 (Ovis aries, UniProt P05979); assay: Inhibition of ovine COX1 using arachidonic acid as substrate by colorimetric assay
T1 sequence (P05979 whole entry): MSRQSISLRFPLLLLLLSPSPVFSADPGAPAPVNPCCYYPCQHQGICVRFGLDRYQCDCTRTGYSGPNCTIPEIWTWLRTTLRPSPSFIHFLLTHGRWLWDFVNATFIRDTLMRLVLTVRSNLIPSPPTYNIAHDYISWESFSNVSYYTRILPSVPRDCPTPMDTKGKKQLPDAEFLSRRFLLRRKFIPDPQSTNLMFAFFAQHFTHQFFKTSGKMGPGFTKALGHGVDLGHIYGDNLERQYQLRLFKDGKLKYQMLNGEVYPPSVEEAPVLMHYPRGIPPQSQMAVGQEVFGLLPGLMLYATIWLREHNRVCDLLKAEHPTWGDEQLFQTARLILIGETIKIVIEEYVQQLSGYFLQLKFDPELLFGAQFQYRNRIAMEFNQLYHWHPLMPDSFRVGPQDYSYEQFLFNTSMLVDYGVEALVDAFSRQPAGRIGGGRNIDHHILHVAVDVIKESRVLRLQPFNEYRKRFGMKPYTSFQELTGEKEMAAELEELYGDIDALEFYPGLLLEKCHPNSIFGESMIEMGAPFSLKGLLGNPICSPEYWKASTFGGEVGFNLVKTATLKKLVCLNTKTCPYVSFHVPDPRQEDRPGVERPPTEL

[5] = test system: Plasma; assay: Anticoagulant activity in human platelet poor plasma assessed as prothrombin time at 100 uM incubated for 15 mins at room temperature and subsequent incubation for 2 mins at 37 degreeC followed by PBS addition and measured after 3 mins for every secs in presence of calcium thromboplastin; assay type: functional
[6] = test system: NCI-H929; assay: Induction of apoptosis in human NCI-H929 cells assessed as necrotic cells at 42 nM after 48 hrs in presence of bortezomib by Annexin-V/propidium iodide staining based flow cytometric method (reference value: 0.0034%); assay type: functional
[7] = test system: NCI-H929; assay: Cell cycle arrest in human NCI-H929 cells assessed as accumulation at G0/G1 phase at 42 nM in presence of bortezomib after 48 hrs by propidium iodide/RNase staining based flow cytometric method relative to bortezomib alone; assay type: functional
[8] = test system: NCI-H929; assay: Cell cycle arrest in human NCI-H929 cells assessed as accumulation at S phase at 42 nM in presence of bortezomib after 48 hrs by propidium iodide/RNase staining based flow cytometric method relative to bortezomib alone; assay type: functional
[9] = test system: Plasma; assay: Anticoagulant activity in human platelet poor plasma assessed as activated partial thromboplastin time at 100 uM incubated for 15 mins at room temperature and subsequent incubation for 2 mins at 37 degreeC followed by cephalin addition and measured after 2 mins for every secs in presence of CaCl2; assay type: functional
[10] = test system: NCI-H929; assay: Induction of apoptosis in human NCI-H929 cells assessed as necrotic cells at 42 nM after 48 hrs by Annexin-V/propidium iodide staining based flow cytometric method (reference value: 0.0034%); assay type: functional
[11] = test system: RPMI-8226; assay: Induction of apoptosis in human RPMI8226 cells assessed as necrotic cells at 42 nM after 48 hrs in presence of bortezomib by Annexin-V/propidium iodide staining based flow cytometric method (reference value: 0.090%); assay type: functional
[12] = test system: NCI-H929; assay: Induction of apoptosis in human NCI-H929 cells assessed as early apoptotic cells at 42 nM after 48 hrs by Annexin-V/propidium iodide staining based flow cytometric method (reference value: 17.1%); assay type: functional
[13] = test system: RPMI-8226; assay: Induction of apoptosis in human RPMI8226 cells assessed as viable cells at 42 nM after 48 hrs in presence of bortezomib by Annexin-V/propidium iodide staining based flow cytometric method (reference value: 98.7%); assay type: functional; details: RPMI-8226, 48 h, read-out: Activity
[14] = test system: NCI-H929; assay: Potentiation of bortezomib-induced cytotoxicity against human NCI-H929 cells assessed as reduction in cell viability at 42 nM after 48 hrs in presence of bortezomib by CCK8 assay; assay type: functional, cell-based
[15] = test system: RPMI-8226; assay: Cytotoxicity against human RPMI8226 cells assessed as reduction in cell viability at 1.7 uM after 48 hrs by CCK8 assay relative to control; assay type: functional
[16] = test system: NCI-H929; assay: Induction of apoptosis in human NCI-H929 cells assessed as late apoptotic cells at 42 nM after 48 hrs in presence of bortezomib by Annexin-V/propidium iodide staining based flow cytometric method (reference value: 0.23%); assay type: functional
[17] = test system: RPMI-8226; assay: Cell cycle arrest in human RPMI8226 cells assessed as accumulation at S phase at 42 nM after 48 hrs by propidium iodide/RNase staining based flow cytometric method; assay type: functional
[18] = test system: RPMI-8226; assay: Cell cycle arrest in human RPMI8226 cells assessed as accumulation at G0/G1 phase at 42 nM after 48 hrs by propidium iodide/RNase staining based flow cytometric method; assay type: functional
[19] = molecular target: T2, Prostaglandin G/H synthase 2 (Homo sapiens, UniProt P35354); assay: Inhibition of human COX2 using arachidonic acid as substrate by colorimetric assay
T2 sequence (P35354 whole entry): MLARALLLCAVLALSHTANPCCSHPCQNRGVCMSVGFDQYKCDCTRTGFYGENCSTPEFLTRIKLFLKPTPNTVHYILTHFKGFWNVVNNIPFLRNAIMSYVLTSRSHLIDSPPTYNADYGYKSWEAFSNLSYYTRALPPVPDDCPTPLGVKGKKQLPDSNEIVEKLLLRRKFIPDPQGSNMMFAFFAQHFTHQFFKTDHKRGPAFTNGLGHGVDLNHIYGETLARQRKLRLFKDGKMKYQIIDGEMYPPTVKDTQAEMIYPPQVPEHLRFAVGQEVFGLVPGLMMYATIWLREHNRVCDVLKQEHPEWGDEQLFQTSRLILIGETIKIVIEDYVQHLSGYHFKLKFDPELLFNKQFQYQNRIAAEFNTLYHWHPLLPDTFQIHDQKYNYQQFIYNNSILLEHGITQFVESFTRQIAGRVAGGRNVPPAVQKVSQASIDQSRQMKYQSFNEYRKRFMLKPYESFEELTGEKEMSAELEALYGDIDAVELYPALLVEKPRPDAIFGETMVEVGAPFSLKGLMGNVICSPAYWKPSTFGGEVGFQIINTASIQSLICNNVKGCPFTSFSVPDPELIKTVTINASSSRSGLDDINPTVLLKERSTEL

[20] = test system: RPMI-8226; assay: Cell cycle arrest in human RPMI8226 cells assessed as accumulation at S phase at 42 nM in presence of bortezomib after 48 hrs by propidium iodide/RNase staining based flow cytometric method relative to bortezomib; assay type: functional
[21] = test system: RPMI-8226; assay: Induction of apoptosis in human RPMI8226 cells assessed as late apoptotic cells at 42 nM after 48 hrs in presence of bortezomib by Annexin-V/propidium iodide staining based flow cytometric method (reference value: 0.21%); assay type: functional

C=Cc1onc(-c2ccc(OC)cc2)c1-c1ccc(OC)cc1
Activity [1]: Active | Activity [2]: 60.6% | Activity [3]: inactive | IC50 [4]: 42 nM | PT [5]: 13.7 s | Activity [6]: 0% | Activity [7]: 15% | Activity [8]: 15% | APTT [9]: 51.2 s | Activity [10]: 0.012% | Activity [11]: 0.01% | Activity [12]: 16.9% | viability at 0.042 µM [13]: 89.9% | Activity [14]: inactive | Activity [15]: 4% | Activity [16]: 0.22% | Activity [17]: inactive | Activity [18]: inactive | IC50 [19]: > 50000 nM | Activity [20]: Active | Activity [21]: 0.37%
